Data taken from patent US20150306165A1, “PLANT EXTRACT COMPOSITION FOR INHIBITING ADIPOCYTES, REDUCING BODY FAT, PROMOTING WEIGHT LOSS AND INCREASING LIPID METABOLISM AS WELL AS APPLICATION THEREOF” (CALIWAY BIOMEDICAL CO., LTD., priority 2014, published 2015).
Marks after values point to notes of the source that are not given here.

Legend:
[1] = Animal assay (I): high fat diet rats, weight gain and body fat; assay type: in vivo, Sprague-Dawley (SD) male rats; details: positive control group
Protocol: Sprague-Dawley (SD) male rats were used in this example. There were six groups for test, respectively as a normal group, an obese group, a positive control group (Orlistat®, 18.6 mg/kg BW), a low-dose experimental group (the formulation LB004: 223.2 mg/kg BW), a medium-dose experimental group (the formulation LB004: 446.4 mg/kg BW), and a high-dose experimental group (the formulation LB004: 892.8 mg/kg BW). Ten male rats were used in each group. During the 8-week experiment period, high fat diets were fed ad libitum for all groups except […]. Three formulation LB004 doses of the present invention were orally given simultaneously during the experiment and body weight loss and lipid mass reduction were evaluated. Bodyweight, food and water intake were recorded weekly. In the end of the test, total amount of fat and the percentage of fat dry weight were determined.
In the end of the experiment, the rats were sacrificed. Epididymis fat, perinephric fat, and mesenteric fat were weighted and the total amount of internal fat was calculated. In addition, the fat of groin and the extraperitoneal fat were weighted to calculate the amount of subcutaneous fat.
In addition, the wet weights of rat bodies were weighed. Then the rat bodies were dried in an oven at 105° C. to constant dry weight for measuring dry weights of the rat bodies. The rat bodies were pulverized by uniform homogenizer. The percentage of dry weight and the amount of crude fat of whole animals is calculated by diethyl ether extraction at 2 to 3 different sampling points.

[2] = Animal assay (IV): high fat diet mice, 8 weeks, weight gain and fat; assay type: in vivo, B6 strain male mice
Protocol: B6 strain male mice were used in this example. There were five groups for test, respectively as the obese group, the resveratrol (61.5 mg/kg BW), the green tea extract (123 mg/kg BW), and experimental groups such as the formulation LB001 (338.25 mg/kg BW) and the formulation LB0008 (326 mg/kg BW). Five male animals were used in each group. During the test, high fat diets and experimental substrates were fed for all groups to induce obesity during eight weeks. In the experimental duration, weight and the average daily intake were recorded. In the end of the experiment, the mice were sacrificed to weight epididymis fat, perinephric fat, and mesenteric fat and calculate the total amount of visceral fat; groin fat and extra-abdominal fat were weighed to calculate the amount of subcutaneous fat.

Compound | fat (dry weight) ([1]; 18.6 mg/kg B.W., 8 weeks) | total fat mass ([1]; 18.6 mg/kg B.W., 8 weeks) | total weight gain ([1]; 18.6 mg/kg B.W., 8 weeks) | body fat decrease compared with the obese group ([1]; 18.6 mg/kg BW) [%] | body weight decline compared with the obese group ([1]; 18.6 mg/kg BW) [%] | decrease of percentage of fat dry weight compared with the obese group ([1]; 18.6 mg/kg BW) [%] | visceral fat, subcutaneous fat, and total fat mass compared with the obese group ([2]; resveratrol 61.5 mg/kg BW, FIG. 10) | inhibitory effect on weight gain ([2]; resveratrol alone 61.5 mg/kg BW, FIG. 9)
CCCCCCCCCCC[C@@H](C[C@@H]1OC(=O)[C@H]1CCCCCC)OC(=O)[C@H](CC(C)C)NC=O [Orlistat®, Orlistat] | 31.6 ± 6.0^a % | 38.1 ± 8.8^c g | 240.1 ± 24.4^c g | 23.9 | 12.0 | 17.4 |  | 
Oc1ccc(C=Cc2cc(O)cc(O)c2)cc1 [resveratrol] |  |  |  |  |  |  | no statistical difference | poor and had no statistical difference from the obese group
